{"source": "paper PMC6152024", "about": "(Molecules : A Journal of Synthetic Chemistry and Natural …, 2017)", "key": {"CYP3A [1]": {"target": "T1, CYP3A (Homo sapiens, UniProt P08684)", "T1 sequence (P08684 2-503)": "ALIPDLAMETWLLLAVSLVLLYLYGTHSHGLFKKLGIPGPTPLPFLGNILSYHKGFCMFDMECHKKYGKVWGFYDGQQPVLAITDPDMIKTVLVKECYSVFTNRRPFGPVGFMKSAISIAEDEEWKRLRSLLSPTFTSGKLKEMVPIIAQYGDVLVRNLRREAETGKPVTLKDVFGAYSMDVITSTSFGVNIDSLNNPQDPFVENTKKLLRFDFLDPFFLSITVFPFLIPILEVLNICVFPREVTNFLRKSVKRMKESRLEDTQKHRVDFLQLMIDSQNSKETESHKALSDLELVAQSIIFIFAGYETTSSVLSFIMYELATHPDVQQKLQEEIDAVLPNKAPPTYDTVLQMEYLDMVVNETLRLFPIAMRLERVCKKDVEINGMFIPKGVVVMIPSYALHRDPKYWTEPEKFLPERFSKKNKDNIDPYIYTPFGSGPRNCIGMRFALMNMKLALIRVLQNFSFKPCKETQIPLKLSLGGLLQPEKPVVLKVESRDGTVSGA", "experiment": "Effect on DCCTX production from CTX in HLMs", "type": "in vitro ADME", "conditions": "10 µM inhibitor, HLMs 0.5 mg/mL, CTX substrate; 60 min", "protocol": "The effect of Gom A on CYP3A metabolism of CTX in HLMs was investigated. […] Considering the difficulty for direct CAA determination, DCCTX was assayed to reflect CAA production using an established UHPLC-MS method (II).\nThe CYP3A inhibitor ketoconazole (Keto) was used as positive control. Briefly, various concentrations of Gom A and Keto (0.01, 0.1, 1 and 10 µM) were incubated with HLMs (0.5 mg/mL) in PBS (0.1 M) containing NADPH-gs and 100 µM CTX in a total volume of 200 µL. After a 5 min warm up period, reactions were initiated with addition of NADPH-gs. Incubations were conducted at 37 °C for 60 min and then terminated by the addition of 200 µL ice-cold acetonitrile containing 6 ng/mL of TNZ (IS-II)."}, "hepatic CYP3A mRNA": {"system": "hepatic CYP3A mRNA", "experiment": "CYP3A expression assay (real-time PCR) in rat liver", "type": "in vivo", "conditions": "normalized to GAPDH", "protocol": "Rats were randomly divided into four groups (groups A−D, n = 5), respectively. In brief, rats in group A (vehicle control group) were i.g. administered with saline (10 mL/kg), and were euthanized 72 h later. Rats in groups B−D were i.g. administered with Gom A at dose of 20.8 mg/kg (50 µmol/kg, same with pharmacokinetic study), and euthanized 24, 48 and 72 h respectively after Gom A treatment. After euthanization, rat livers were immediately collected, washed with ice-cold saline, and stored at −80 °C for CYP3A protein expression assay.\nTo determine CYP3A mRNA content in rat liver, the liver samples were homogenized and the total RNA was extracted from liver samples using RNeasy Mini Kit according to the manufacturer’s instructions (Qiagen). The concentration of total RNA was determined by UV spectra at 260/280 nm, and the purity was determined by calculating the ration of UV absorbance. 2 µg of total RNA in a total volume of 50 µL (1 µg/25 µL) was reverse transcribed into template cDNA using dNTP mix (1 mM), random primers (0.5 µg/mL), AMV RT (22 U/µL), MgCl2 (25 mM) and RT buffer (10×).\nFor qRT-PCR, forward and reverse primer sequences (Table 2) of CYP3A gene were used. In a Stratagene Mx3005P sequence detection system (Agilent Technologies Agilent, Santa Clara, CA, USA), 50 ng of cDNA/sample and 10 µM forward and reverse primers were added to a total reaction mixture of 20 µL of SYBR Select Master Mix (Invitrogen). GAPDH was applied as the house-keeping gene. All assays were performed in triplicate. […] The CYP3A mRNA levels of groups A−D were expressed as a ratio of induced to vehicle control group (group A)."}, "CYP3A [2]": {"target": "T1, CYP3A", "experiment": "KI and kinact assay (CYP3A inactivation) in HLMs", "type": "in vitro ADME", "set-up": "tissue Meilun Biotechnology Co., Ltd. (Dalian, China) lot No. M0202A; host or cells: pooled (mixed) male human liver microsomes", "conditions": "preincubation 0-30 min with NADPH-gs, 100 µM Tes", "protocol": "The following steps were similar as described in the IC50 shift assays. […] All the incubations were performed in triplicate.\nPharmacokinetic profiles of CTX and DCCTX were estimated by one-compartmental model using the DAS 2.0 software ([…], Medical College of Wannan, Anhui, China). Data were expressed as mean ± SD. Comparisons between two groups were performed using one-way ANOVA followed by LSD test in the condition of variance homogeneity or Dunnett T3 test in the case of variance heterogeneity. The differences were considered to be statistically significant at * p < 0.05 and ** p < 0.01. IC50 values of Gom A were determined by nonlinear regression analysis using GraphPad Prism 5.01 software (GraphPad Software Inc., San Diego, CA, USA). The mode of inhibition was verified by Lineweaver-Burk plots of the enzyme kinetic data, and the KI value was determined by linear regression analysis with GraphPad Prism 5.01 (GraphPad Software Inc.). The initial inactivation rate constant (kobs, min^−1) was estimated from the initial slope of the linear regression line at each concentration of Gom A. Then the values of kobs were plotted versus Gom A concentration, and the maximal inactivation rate constant kinact, along with the concentration of inactivator (at which the rate of the inactivation is half maiximal) KI values, were determined using Equation (1). […]"}}, "data": [{"substance": "Gomisin A [Gom A]", "values": [{"measurement": "DCCTX production, % of that in control group", "setting": "CYP3A [1]", "value": 15, "unit": "%"}, {"measurement": "hepatic CYP3A mRNA expression increase vs vehicle group", "setting": "hepatic CYP3A mRNA; 24 h after single dose Gom A 20.8 mg/kg i.g.", "value": 73, "unit": "fold"}, {"measurement": "hepatic CYP3A mRNA expression increase vs vehicle group", "setting": "hepatic CYP3A mRNA; 48 h after single dose Gom A 20.8 mg/kg i.g.", "value": 18, "unit": "fold"}, {"measurement": "hepatic CYP3A mRNA expression increase vs vehicle group", "setting": "hepatic CYP3A mRNA; 72 h after single dose Gom A 20.8 mg/kg i.g.", "value": 8, "unit": "fold"}, {"measurement": "kinact", "setting": "CYP3A [2]", "value": 1.96, "unit": "min⁻¹"}]}]}
